Counter-ions that a name gives are not always drawn. Like-named read-outs stand apart in the source and are kept apart here.
Biological target: T1, human renin (Homo sapiens, UniProt P00797)
T1 construct: taking the active type (67-406); made in house
T1 sequence (P00797 67-406): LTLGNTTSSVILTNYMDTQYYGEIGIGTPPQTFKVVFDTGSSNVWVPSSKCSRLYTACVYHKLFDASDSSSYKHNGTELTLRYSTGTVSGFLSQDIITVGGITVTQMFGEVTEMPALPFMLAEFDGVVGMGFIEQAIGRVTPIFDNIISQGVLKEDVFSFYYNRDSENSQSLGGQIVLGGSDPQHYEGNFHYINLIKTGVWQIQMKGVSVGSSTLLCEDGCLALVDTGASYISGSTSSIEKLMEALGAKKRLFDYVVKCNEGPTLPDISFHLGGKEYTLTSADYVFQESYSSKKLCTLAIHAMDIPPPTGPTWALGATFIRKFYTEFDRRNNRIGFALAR
Experiment: Measurement of renin inhibition value - B (angiotensinogen substrate, angiotensin I EIA)
Type: biochemical
Details: pH 7.4, 37° C., 30 min; for inhibition at 1 µM: read-out: human renin inhibitory activity: inhibitory activity (%) at 1 μM
Method: After the reaction, 0.4 ml of immobilized trypsin inhibitor (Pierce Biotechnology, Inc.) was added to remove the trypsin used in the activation by adsorption. The reaction liquid containing the active type renin was concentrated using Vivaspin 20 (molecular weight cut off 10,000, Vivascience, Inc.), and was diluted with 20 mM Tris-hydrochloric acid (pH 8.0).
(5) Purification of Angiotensinogen
After transfection of the plasmid DNA, the cells were subjected to shaking culture under the conditions of 37° C., 8% CO2 and 125 rpm for 3 days. A 600-ml aliquot of the culture medium was centrifuged at 2,000 rpm for 10 min to recover the culture supernatant containing angiotensinogen. To the culture supernatant was added ammonium sulfate (30% saturated concentration), and the mixture was thoroughly stirred and centrifuged at 8,000 rpm for 20 min. The obtained supernatant was added to TOYO Pearl butyl 650M (2×5 cm, Tosoh Corporation) equilibrated with 50 mM tris-hydrochloric acid (pH 8.0) containing 30% saturated ammonium sulfate, at a flow rate of 25 ml/min to allow adsorption. After washing with equilibration buffer, angiotensinogen was eluted by linear concentration gradient from the buffer used for equilibration to 20 mM tris-hydrochloric acid (pH 8.0). The eluate containing angiotensinogen was applied to repeated concentration and dilution using Vivaspin 20 (molecular weight cut off 10,000, Vivascience, Inc.), and the buffer was changed to 20 mM tris-hydrochloric acid (pH 8.0). The eluate was fed to a 6-ml RESOURCE Q column (Amersham Biosciences, Inc.) equilibrated with 20 mM Tris-hydrochloric acid (pH 8.0) containing 50 mM sodium chloride at a flow rate of 6 ml/min to adsorb the angiotensinogen. After washing the column with the buffer solution used in the equilibration, elution was carried out by means of a linear concentration gradient of sodium chloride from 50 mM to 400 mM. The fractions containing angiotensinogen were collected and concentrated using Vivaspin 20 (molecular weight cut off 10,000, Vivascience, Inc.) to a volume of about 2 ml.
(7) Measurement of Renin Inhibition Value—B
As a substrate for renin activity measurement, the angiotensinogen mentioned in (5) above was used. 1 μeach of the test compound (containing 100% DMSO) was added to each well of a 384-well plate (ABgene). Renin was diluted with a buffer solution for reaction (20 mM sodium phosphate (pH 7.4)) to a concentration of 57 pM, and 14 μl each of the dilution was added to each well. The dilution was left to stand at 37° C. for 10 min, and then 5 μl of each of a 6 μM solution of substrate angiotensinogen was added to each well to initiate the reaction. […] The amount of angiotensin I produced by an enzyme reaction was quantified by Enzyme immunoassay (EIA) described below.
Anti-angiotensin I antibody (Peninsula Laboratories Inc.) diluted 5,000-fold with PBS was added to each well of a 384 well black plate (Nalge Nunc International Co., Ltd.) by 25 μl, and left standing overnight at 4° C. to immobilize the antibody in the plate. The antibody solution was removed, PBS solution (100 μl) containing 1% BSA was added to each well, and the mixture was left standing at room temperature for 2 hr for blocking. The blocking solution was removed, and each well was washed 5 times with 100 μl of 0.05% Tween20-PBS. […] Then, a biotinated angiotensin I solution (AnaSpec, 15 μl) prepared to 1.6 nM with a buffer [20 mM tris-hydrochloric acid (pH 7.4), 150 mM sodium chloride, 0.01% BSA, 0.05% Tween20] was added to each well, mixed with a plate mixer and left standing at room temperature for 1 hr.

inhibition at 1 µM (1 μM test compound) | Compound | other results
97% | COC(=O)[C@H]1CNC[C@@H](N(CC(C)C)C(=O)c2cnc(C(C)(C)C)nc2NCCCSC)C1 (relative stereo) [Example 98, methyl (3R*,5S*)-5-[[(2-tert-butyl-4-{[3-(methylthio)propyl]amino}pyrimidin-5-yl)carbonyl](isobutyl)amino]piperidine-3-carboxylate] | 
97% | COC(=O)[C@H]1CNC[C@@H](N(CC(C)C)C(=O)c2cnc(C(C)(C)C)nc2NCc2ccccc2)C1 (relative stereo) [Example 99, methyl (3R*,5S*)-5-[{[4-(benzylamino)-2-tert-butylpyrimidin-5-yl]carbonyl}(isobutyl)amino]piperidine-3-carboxylate] | 
98% | CC(C)CN(C(=O)c1cnc(C(C)(C)C)nc1NCc1ccco1)[C@@H]1CNC[C@H](C(N)=O)C1 [Example 132, 2-tert-butyl-N-[(3S,5R)-5-carbamoylpiperidin-3-yl]-4-[(furan-2-ylmethyl)amino]-N-(2-methylpropyl)pyrimidine-5-carboxamide dihydrochloride] | 
97% | CC(C)CN(C(=O)c1cnc(C(C)(C)C)nc1NCc1ccco1)[C@@H]1CNC[C@H](C(C)(C)O)C1 (relative stereo) [Example 95, 2-tert-butyl-4-[(2-furylmethyl)amino]-N-[(3R*,5S*)-5-(1-hydroxy-1-methylethyl)piperidin-3-yl]-N-isobutylpyrimidine-5-carboxamide dihydrochloride] | 
97% | CC(C)CN(C(=O)c1cnc(C(C)(C)C)nc1NCc1ccco1)[C@@H]1CNC[C@H](C(N)=O)C1 (relative stereo) [Example 93, N-[(3R*,5S*)-5-(aminocarbonyl)piperidin-3-yl]-2-tert-butyl-4-[(2-furylmethyl)amino]-N-isobutylpyrimidine-5-carboxamide dihydrochloride] | 

Further lines, the compound ahead of its results:

Compound | inhibition at 1 µM (1 μM test compound) | other results
CNCC1CCN(C(=O)c2cnc(C(C)(C)C)nc2NCc2ccco2)CC1 [Example 59, 2-tert-butyl-N-(2-furylmethyl)-5-({4-[(methylamino)methyl]piperidin-1-yl}carbonyl)pyrimidin-4-amine dihydrochloride] | 86% | 
COCCCNc1nc(C(C)(C)C)ncc1C(=O)N(CC(C)C)[C@@H]1CNC[C@H](C(=O)OC)C1 [Example 96, methyl (3R,5S)-5-[({2-tert-butyl-4-[(3-methoxypropyl)amino]pyrimidin-5-yl}carbonyl)(isobutyl)amino]piperidine-3-carboxylate dihydrochloride] | 97% | 
CC(C)(C)c1ncc(C(=O)N2CCC(CN)CC2)c(NCc2ccco2)n1 [Example 58, 5-{[4-(aminomethyl)piperidin-1-yl]carbonyl}-2-tert-butyl-N-(2-furylmethyl)pyrimidin-4-amine dihydrochloride] | 82% | 
CC(C)CN(C(=O)c1cnc(C(C)(C)C)nc1NCc1ccco1)[C@@H]1CNC[C@H](C(=O)N2CCC(C)(O)CC2)C1 (relative stereo) [Example 94, 2-tert-butyl-4-[(2-furylmethyl)amino]-N-{(3R*,5S*)-5-[(4-hydroxy-4-methylpiperidin-1-yl)carbonyl]piperidin-3-yl}-N-isobutylpyrimidine-5-carboxamide dihydrochloride] | 97% | 
CC(C)CN(C(=O)c1cnc(C(C)(C)C)nc1NCc1ncco1)[C@@H]1CNC[C@H](C(=O)N2CCOCC2)C1 [Example 109, 2-tert-butyl-N-(2-methylpropyl)-N-[(3S,5R)-5-(morpholin-4-ylcarbonyl)piperidin-3-yl]-4-[(1,3-oxazol-2-ylmethyl)amino]pyrimidine-5-carboxamide sulfate] | 98% | 
COCCCNc1nc(C(C)(C)C)ncc1C(=O)N(CC(C)C)[C@@H]1CNC[C@H](C(=O)N2CCOCC2)C1 [Example 97, 2-tert-butyl-4-[(3-methoxypropyl)amino]-N-(2-methylpropyl)-N-[(3S,5R)-5-(morpholin-4-ylcarbonyl)piperidin-3-yl]pyrimidine-5-carboxamide dihydrochloride] |  | inhibition at 1 µM (pH 7.4, 1 μM test compound): 97%
CNCC1CCN(C(=O)c2cnc(C(C)C)nc2NCc2ccco2)CC1 [Example 63, N-(2-furylmethyl)-2-isopropyl-5-({4-[(methylamino)methyl]piperidin-1-yl}carbonyl)pyrimidin-4-amine] | 54% | 
COCCCNc1nc(C(C)(C)C)ncc1C(=O)N(CC(C)C)[C@@H]1CNC[C@H](C(=O)N2CCOCC2)C1.O=C(O)/C=C/C(=O)O [Example 207, 2-tert-butyl-4-[(3-methoxypropyl)amino]-N-(2-methylpropyl)-N-[(3S,5R)-5-(morpholin-4-ylcarbonyl)piperidin-3-yl]pyrimidine-5-carboxamide monofumarate] |  | human renin inhibitory activity: inhibitory activity (%) at 1 μM (1 μM test compound): 98%
CCC1CCCCN1C(=O)c1cnc(C(C)(C)C)nc1NCc1ccco1 (centres unmarked) [Example 21, 2-tert-butyl-5-[(2-ethylpiperidin-1-yl)carbonyl]-N-(2-furylmethyl)pyrimidin-4-amine] | 58% | 

From patent publication US8329691B2, “Amide compounds and use of the same” (Takeda Pharmaceutical Company Limited, priority 2007, dated 2012)
